This is an account of results in patent publication US12303497B2, “Anti-androgens for the treatment of metastatic castration-sensitive prostate cancer” (priority 2019, dated 2025).

The data set is described as follows: Leuprolide PK sub-study in mCSPC subjects receiving leuprolide acetate. In kind it is in vivo, human. From the text: Optional PK samples were/will be collected from at least 60 consenting subjects (in selected countries) who received or will receive leuprolide acetate as the GnRHa at the time of randomization. Samples were/will be collected on Day 1 of Cycles 1, 3, 4, 5, and 6 for analysis of leuprolide and testosterone concentrations.
Descriptive statistics of leuprolide PK data will be summarized by treatment groups (with apalutamide or placebo) and dose of leuprolide acetate. […] The percentage of subjects with testosterone levels <50 ng/dL will be summarized descriptively by treatment groups.

On to `CNC(=O)c1ccc(N2C(=S)N(c3cnc(C#N)c(C(F)(F)F)c3)C(=O)C23CCC3)cc1F` [Apalutamide, 4-[7-(6-cyano-5-trifluoromethylpyridin-3-yl)-8-oxo-6-thioxo-5,7-diazaspiro[3.4]oct-5-yl]-2-fluoro-N-methylbenzamide], for which the “Effect on the steady-state exposure of leuprolide” value is on record as “no apparent effect”.
